Laboratory results taken from US20040254162A1, “Oxazolidinone derivatives as antimicrobials” (priority 2001, published 2004).
Converted amounts (≈) assume the structure as drawn. “And” between values parts separate entries of the source, which are not always exact repeats. Identical values can stand only once. Like-named read-outs stand apart in the source and are kept apart here.

Legend:
[1] = system: Peptostreptococcus magnum; experiment: Agar dilution MIC, anaerobes; assay type: cell-based; conditions: single isolates, anaerobic agar dilution
Clostridium difficile = experiment: Agar dilution MIC, anaerobes; assay type: cell-based; conditions: single isolates, anaerobic agar dilution; for MIC: Clostridioides difficile, read-out: MIC Clostridium difficile
anaerobic bacteria = experiment: Agar dilution method for anaerobic bacteria, summary; assay type: cell-based
P. acnes = experiment: Agar dilution MIC, anaerobes; assay type: cell-based; conditions: single isolates, anaerobic agar dilution; for MIC: Cutibacterium acnes, read-out: MIC P. acnes
[2] = system: Prevotella (Bacteroides) disiens; experiment: Agar dilution MIC, anaerobes; assay type: cell-based; conditions: single isolates, anaerobic agar dilution
Fusobacterium necrogenes = experiment: Agar dilution MIC, anaerobes; assay type: cell-based; conditions: single isolate, anaerobic agar dilution; for MIC: Fusobacterium necrogenes, read-out: MIC Fusobacterium necrogenes
[3] = system: Peptostreptococcus prevotii; experiment: Agar dilution MIC, anaerobes; assay type: cell-based; conditions: single isolates, anaerobic agar dilution; for MIC: Anaerococcus prevotii, read-out: MIC Peptostreptococcus prevotii
Eubacterium leutum = experiment: Agar dilution MIC, anaerobes; assay type: cell-based; conditions: single isolates, anaerobic agar dilution; for MIC: Eubacterium, read-out: MIC Eubacterium leutum
[4] = system: Peptostreptococcus asaccharolyticus; experiment: Agar dilution MIC, anaerobes; assay type: cell-based; conditions: single isolates, anaerobic agar dilution
Prevotella intermedia = experiment: Agar dilution MIC, anaerobes; assay type: cell-based; conditions: single isolates, anaerobic agar dilution; for MIC: Prevotella intermedia, read-out: MIC Prevotella intermedia
Fusobacterium varium = experiment: Agar dilution MIC, anaerobes; assay type: cell-based; conditions: single isolates, anaerobic agar dilution; for MIC: Fusobacterium varium, read-out: MIC Fusobacterium varium
[5] = system: Prevotella melaninogenica; experiment: Agar dilution MIC, anaerobes; assay type: cell-based; conditions: single isolates, anaerobic agar dilution; for MIC: Prevotella melaninogenica, read-out: MIC Prevotella melaninogenica
[6] = system: Peptostreptococcus micros; experiment: Agar dilution MIC, anaerobes; assay type: cell-based; conditions: single isolates, anaerobic agar dilution; for MIC: Parvimonas micra, read-out: MIC Peptostreptococcus micros
Clostridium camis = experiment: Agar dilution MIC, anaerobes; assay type: cell-based; conditions: single isolates, anaerobic agar dilution; for MIC: Clostridium, read-out: MIC Clostridium camis
[7] = system: Peptostreptococcus tetradius; experiment: Agar dilution MIC, anaerobes; assay type: cell-based; conditions: single isolates, anaerobic agar dilution; for MIC: Anaerococcus tetradius, read-out: MIC Peptostreptococcus tetradius
[8] = system: Porphyromonas asaccharolytica; experiment: Agar dilution MIC, anaerobes; assay type: cell-based; conditions: single isolate, anaerobic agar dilution; for MIC: Porphyromonas asaccharolytica, read-out: MIC Porphyromonas asaccharolytica
Prevotella bivia = experiment: Agar dilution MIC, anaerobes; assay type: cell-based; conditions: single isolate, anaerobic agar dilution; for MIC: Prevotella bivia, read-out: MIC Prevotella bivia
Fusobacterium nucleatum = experiment: Agar dilution MIC, anaerobes; assay type: cell-based; conditions: single isolates, anaerobic agar dilution
Porphyromonas gingivalis = experiment: Agar dilution MIC, anaerobes; assay type: cell-based; conditions: single isolate, anaerobic agar dilution; for MIC: Porphyromonas gingivalis, read-out: MIC Porphyromonas gingivalis
[9] = system: Mycobacterium avium intracellulare; experiment: Agar dilution method, mycobacteria; assay type: cell-based; conditions: for MIC50 / MIC90: Mycobacterium avium, 504 h, Middlebrook 7H10 agar, 21 days; for MIC50: read-out: MIC50; for MIC90: read-out: MIC90
[10] = system: Mycobacterium tuberculosis
[11] = system: Mycobacterium tuberculosis; experiment: microbe, parasite or virus in culture; conditions: 504 h
Fusobacterium montiferum = experiment: Agar dilution MIC, anaerobes; assay type: cell-based; conditions: single isolates, anaerobic agar dilution
Bacteroides fragilis = experiment: Agar dilution MIC, anaerobes; assay type: cell-based; conditions: single isolates, anaerobic agar dilution
Clostridium perfringens = experiment: microbe, parasite or virus in culture; assay type: cell-based; conditions: for MIC Clostridium perfringens: single isolates, anaerobic agar dilution
[12] = anaerobes, Wilkins Chalgren agar, 48 hour

CC1(C)S[C@@H]2[C@H](NC(=O)[C@H](N)c3ccc(O)cc3)C(=O)N2[C@H]1C(=O)O [Amox]
MIC Peptostreptococcus magnum [1]: 0.25 µg/mL and 0.5 µg/mL
MIC Clostridium difficile (Clostridium difficile): 1 µg/mL and 2 µg/mL
Geometric Mean (anaerobic bacteria; anaerobes): 1.366 µg/mL
MIC Range (anaerobic bacteria; anaerobes): 0.062 to 256 µg/mL
MIC50 (anaerobic bacteria; [12]): 1 µg/mL (≈ 2.74 µM)
MIC90 (anaerobic bacteria; [12]): 256 µg/mL (≈ 701 µM)
MIC P. acnes (P. acnes): 0.25 µg/mL (≈ 0.684 µM)
MIC Prevotella (Bacteroides) disiens [2]: >128 µg/mL
MIC Fusobacterium necrogenes (Fusobacterium necrogenes): 0.5 µg/mL (≈ 1.37 µM)
MIC Peptostreptococcus prevotii [3]: 0.25 µg/mL (≈ 0.684 µM)
MIC Eubacterium leutum (Eubacterium leutum): 1 µg/mL (≈ 2.74 µM)
MIC Peptostreptococcus asaccharolyticus [4]: 0.25 µg/mL (≈ 0.684 µM)
MIC Prevotella intermedia (Prevotella intermedia): 4 µg/mL (≈ 10.9 µM)
MIC Fusobacterium varium (Fusobacterium varium): 1 µg/mL (≈ 2.74 µM)
MIC Prevotella melaninogenica [5]: 64 µg/mL (≈ 175 µM)

C[C@@H](O)[C@H]1C(=O)N2C(C(=O)O)=C(SCCN=CN)C[C@H]12 [Imipenem]
MIC [6]: 0.03 µg/mL (≈ 0.1 µM)
MIC (Clostridium difficile): 4 µg/mL (≈ 13.4 µM)
MIC (Clostridium camis): 0.06 µg/mL (≈ 0.2 µM)
MIC [7]: 0.03 µg/mL (≈ 0.1 µM)
MIC50 (anaerobic bacteria; 48 h): 0.064 µg/mL (≈ 0.214 µM)
MIC90 (anaerobic bacteria; 48 h): 1 µg/mL (≈ 3.34 µM)
Geometric Mean (anaerobic bacteria; anaerobes): 0.084 µg/mL
MIC Range (anaerobic bacteria; anaerobes): 0.008 to 4 µg/mL
MIC [8]: 0.03 µg/mL (≈ 0.1 µM)
MIC (Prevotella bivia): 0.03 µg/mL (≈ 0.1 µM)
MIC (Fusobacterium nucleatum; Fusobacterium nucleatum, read-out: MIC Fusobacterium nucleatum): ≤ 0.016 µg/mL
MIC (P. acnes): ≤ 0.016 µg/mL
MIC (Porphyromonas gingivalis): ≤ 0.016 µg/mL
MIC (Fusobacterium necrogenes): 0.25 µg/mL (≈ 0.835 µM)
MIC [3]: ≤ 0.016 µg/mL
MIC (Eubacterium leutum): 0.25 µg/mL (≈ 0.835 µM)
MIC Eubacterium leutum (Eubacterium leutum): 0.5 µg/mL (≈ 1.67 µM)
MIC (Prevotella intermedia): ≤ 0.016 µg/mL
MIC (Fusobacterium varium): 0.5 µg/mL (≈ 1.67 µM)
MIC Fusobacterium varium (Fusobacterium varium): 1 µg/mL (≈ 3.34 µM)
MIC [5]: ≤ 0.016 µg/mL

C[C@@H]1CN(c2c(F)c(N)c3c(=O)c(C(=O)O)cn(C4CC4)c3c2F)C[C@H](C)N1 [Sparfloxacin]
MIC50 [9]: 4 µg/mL (≈ 10.2 µM)
MIC90 [9]: 8 µg/mL (≈ 20.4 µM)
G.M. ([9]; geometric mean MIC): 3.526 µg/mL
G.M. ([10]; geometric mean MIC): 0.53 µg/mL
MIC50 [11]: 1 µg/mL (≈ 2.55 µM)
MIC90 [11]: 2 µg/mL (≈ 5.1 µM)

Teicoplanin
MIC Fusobacterium montiferum (Fusobacterium montiferum): >16 µg/mL
MIC Bacteroides fragilis (Bacteroides fragilis): >16 µg/mL
MIC Clostridium difficile (Clostridium difficile): 0.25 µg/mL
MIC Clostridium camis (Clostridium camis): <=.06 μg/ml
Geometric Mean (anaerobic bacteria; anaerobes): 2.04 µg/mL
MIC Range (anaerobic bacteria; anaerobes): 0.03 to 32 µg/mL
MIC50 (anaerobic bacteria; [12]): 2 µg/mL
MIC90 (anaerobic bacteria; [12]): 32 µg/mL
MIC Porphyromonas asaccharolytica [8]: 0.125 µg/mL
MIC Prevotella bivia (Prevotella bivia): 1 µg/mL
MIC Clostridium perfringens (Clostridium perfringens): <=.06 μg/ml
MIC Fusobacterium nucleatum (Fusobacterium nucleatum): >16 µg/mL
MIC P. acnes (P. acnes): 0.25 µg/mL
MIC Porphyromonas gingivalis (Porphyromonas gingivalis): <=.06 μg/ml
MIC Prevotella (Bacteroides) disiens [2]: 16 µg/mL and >16 µg/mL
MIC Fusobacterium necrogenes (Fusobacterium necrogenes): >16 µg/mL
MIC Peptostreptococcus asaccharolyticus [4]: 0.125 µg/mL
MIC Prevotella intermedia (Prevotella intermedia): 0.5 µg/mL
MIC Fusobacterium varium (Fusobacterium varium): >16 µg/mL
MIC Prevotella melaninogenica [5]: 2 µg/mL and 4 µg/mL

CO[C@H]1/C=C/O[C@@]2(C)Oc3c(C)c(O)c4c(O)c(c(/C=N/N5CCN(C)CC5)c(O)c4c3C2=O)NC(=O)/C(C)=C\C=C\[C@H](C)[C@H](O)[C@@H](C)[C@@H](O)[C@@H](C)[C@H](OC(C)=O)[C@@H]1C [Rifampicin]
G.M. [9]: 1.999 µg/mL
MIC50 [9]: 1 µg/mL (≈ 1.22 µM)
MIC90 [9]: 32 µg/mL (≈ 38.9 µM)
G.M. [10]: 6.35 µg/mL
MIC50 [11]: 64 µg/mL (≈ 77.8 µM)
MIC90 [11]: 64 µg/mL (≈ 77.8 µM)

Cc1ncc([N+](=O)[O-])n1CCO [Metronidazole]
MIC (Fusobacterium montiferum; Fusobacterium, read-out: MIC Fusobacterium montiferum): ≤ 0.125 µg/mL
MIC (Bacteroides fragilis; Bacteroides fragilis, read-out: MIC Bacteroides fragilis): 0.5 µg/mL (≈ 2.92 µM)
MIC Bacteroides fragilis (Bacteroides fragilis): 1 µg/mL (≈ 5.84 µM)
MIC [6]: 0.25 µg/mL (≈ 1.46 µM)
MIC Peptostreptococcus micros [6]: 0.5 µg/mL (≈ 2.92 µM)
MIC (Clostridium difficile): 0.25 µg/mL (≈ 1.46 µM)
MIC (Clostridium camis): ≤ 0.125 µg/mL
MIC [7]: 1 µg/mL (≈ 5.84 µM)
MIC50 (anaerobic bacteria; 48 h): 0.5 µg/mL (≈ 2.92 µM)
MIC90 (anaerobic bacteria; 48 h): 2 µg/mL (≈ 11.7 µM)
Geometric Mean (anaerobic bacteria; anaerobes): 0.48 µg/mL
MIC Range (anaerobic bacteria; anaerobes): 0.062 to 32 µg/mL
MIC [8]: ≤ 0.125 µg/mL
MIC (Prevotella bivia): 1 µg/mL (≈ 5.84 µM)
MIC (Clostridium perfringens; Clostridium perfringens, read-out: MIC Clostridium perfringens, single isolates, anaerobic agar dilution): 1 µg/mL (≈ 5.84 µM)
MIC (P. acnes): > 16 µg/mL
MIC (Porphyromonas gingivalis): ≤ 0.125 µg/mL
MIC Prevotella (Bacteroides) disiens [2]: 1 µg/mL (≈ 5.84 µM)
MIC ([2]; read-out: MIC Prevotella (Bacteroides) disiens): 0.5 µg/mL (≈ 2.92 µM)
MIC (Fusobacterium necrogenes): 0.25 µg/mL (≈ 1.46 µM)
MIC [3]: 2 µg/mL (≈ 11.7 µM)
MIC Peptostreptococcus prevotii [3]: 1 µg/mL (≈ 5.84 µM)
MIC (Eubacterium leutum): 0.25 µg/mL (≈ 1.46 µM)
MIC Eubacterium leutum (Eubacterium leutum): 0.5 µg/mL (≈ 2.92 µM)
MIC (Prevotella intermedia): 0.5 µg/mL (≈ 2.92 µM)
MIC Prevotella intermedia (Prevotella intermedia): 0.25 µg/mL (≈ 1.46 µM)
MIC (Fusobacterium varium): ≤ 0.125 µg/mL
MIC [5]: 0.25 µg/mL (≈ 1.46 µM)
MIC Prevotella melaninogenica [5]: 0.5 µg/mL (≈ 2.92 µM)

NNC(=O)c1ccncc1 [Isoniazid]
MIC50 [9]: 32 µg/mL (≈ 233 µM)
MIC90 [9]: 64 µg/mL (≈ 467 µM)
G.M. ([9]; geometric mean MIC): 18.149 µg/mL
G.M. ([10]; geometric mean MIC): 3.17 µg/mL
MIC50 [11]: 8 µg/mL (≈ 58.3 µM)
MIC90 [11]: 64 µg/mL (≈ 467 µM)

CC[C@H]1OC(=O)[C@H](C)[C@@H](O[C@H]2C[C@@](C)(OC)[C@@H](O)[C@H](C)O2)[C@H](C)[C@@H](O[C@@H]2O[C@H](C)C[C@H](N(C)C)[C@H]2O)[C@](C)(OC)C[C@@H](C)C(=O)[C@H](C)[C@@H](O)[C@]1(C)O [Clarithromycin]
MIC50 [9]: 1 µg/mL (≈ 1.34 µM)
MIC90 [9]: 4 µg/mL (≈ 5.35 µM)
G.M. ([9]; geometric mean MIC): 1.554 µg/mL
G.M. ([10]; geometric mean MIC): 12.69 µg/mL
MIC50 [11]: 16 µg/mL (≈ 21.4 µM)
MIC90 [11]: 32 µg/mL (≈ 42.8 µM)

Amox + clav
MIC Peptostreptococcus magnum ([1]; listed as Ax/clav): 0.25 µg/mL and 0.5 µg/mL
MIC Peptostreptococcus micros [6]: <=.125 μg/ml
MIC Clostridium difficile (Clostridium difficile): 1 µg/mL
MIC Clostridium camis (Clostridium camis): <=.125 μg/ml
MIC Peptostreptococcus tetradius [7]: <=.125 μg/ml
Geometric Mean (anaerobic bacteria; anaerobes): 0.423 µg/mL
MIC Range (anaerobic bacteria; anaerobes): 0.062 to 32 µg/mL
MIC50 (anaerobic bacteria; [12]): 0.25 µg/mL
MIC90 (anaerobic bacteria; [12]): 8 µg/mL
MIC Porphyromonas asaccharolytica [8]: <=.125 μg/ml
MIC Prevotella bivia (Prevotella bivia): <=.125 μg/ml
MIC Clostridium perfringens (Clostridium perfringens): <=.125 μg/ml
MIC Fusobacterium nucleatum (Fusobacterium nucleatum): <=.125 μg/ml
MIC P. acnes (P. acnes): 0.25 µg/mL
MIC Porphyromonas gingivalis (Porphyromonas gingivalis): <=.125 μg/ml
MIC Fusobacterium necrogenes (Fusobacterium necrogenes): 0.5 µg/mL
MIC Peptostreptococcus prevotii [3]: <=.125 μg/ml
MIC Eubacterium leutum (Eubacterium leutum): 1 µg/mL
MIC Peptostreptococcus asaccharolyticus [4]: 0.25 µg/mL
MIC Prevotella intermedia (Prevotella intermedia): <=.125 μg/ml
MIC Fusobacterium varium (Fusobacterium varium): 1 µg/mL
MIC Prevotella melaninogenica [5]: 2 µg/mL
